Measured values published in US6605712B1, “Gene transcription and ionizing radiation: methods and compositions” (Arch Development Corporation, priority 1990, dated 2003).
“Also recorded” adds a separate entry of the source.

Legend:
[1] = system: Egr-1 and Jun transcripts in cell lines 293 and SQ-20B; assay: Northern blot of Egr-1 and Jun transcripts after x-irradiation with inhibitors; type: cell-based; details: for effect on x-ray-induced increase in Egr-1 and Jun transcripts: treatment prior to irradiation
Method: Cell line SQ-20B was pretreated with 1 μM TPA for 40 hours to down regulate PKC and then stimulated with TPA, serum, or x-ray (20 Gy). Controls included x-ray without TPA pretreatment, TPA (50 nM) without TPA pretreatment and untreated cells. RNA was isolated after one hour and hybridized to Egr-1. SQ-20B cells were preincubated with 100 μM H7 (1-(5-isoquinolinylsulfonyl)-2-methyl piperazine) or 100 μM HA1004 (N-[2-methyl-amino]ethyl)-5-isoquino-linesulfonamide) (Seikagaku America, Inc., St. Petersberg, Fla.) for 30 minutes or TPA pretreatment (1 μM) for 40 hours and followed by exposure to 20 Gy x-irradiation. RNA was extracted one hour after irradiation. Positive control cells treated under the same conditions but in the absence of inhibitor also received 20 Gy, while negative control cells received neither H7 nor X-ray. RNA was extracted at one hour after 20 Gy without inhibitor. Northern blots were hybridized to Egr-1 or 7S. 293 cells pretreated with the above inhibitors were irradiated, RNA was extracted after 3 hours and the Northern blot was hybridized to Jun and 7S probes.

[2] = system: RIT-3 cells; assay: GAL4-Jun chimeric / G5BCAT co-transfection CAT assay; type: cell-based, human
Description: HeLa and RIT-3 cells were transfected with two plasmids. Plasmid pSG-Jun5-253 contained the SV40 promoter (not transcriptionally responsive to radiation) upstream of an encoding region that encoded a chimeric protein (GAL4-Jun) comprising a sequence for Δ, A1, and A2 (Baichwal, 1990) and the DNA binding domain of the yeast GAL4 gene (the DNA binding domain of Jun was replaced with the DNA binding domain of the GAL4 gene, Baichwal, 1990). A second plasmid, G5BCAT was constructed to contain the DNA sequence that binds Gal4 protein placed 5′ of the Elb TATA box and upstream of the CAT reporter gene (Baichwal, 1990).
Two plasmids were transfected into HeLa and RIT-3 cells to study activation of the transcriptional potential of Jun protein following irradiation. pSG-Jun5-253 contains the SV40 promoter, which is not transcriptionally responsive to radiation, upstream of the coding sequence for Δ, A1, and A2 (Baichwal, 1990). The DNA binding domain of Jun was replaced with the DNA binding domain of the yeast GAL4 gene which encodes a protein involved in yeast transcriptional regulation (Baichwal, 1990). A second plasmid, G5BCAT contains the DNA sequence which binds Gal4 protein placed 5′ of the E1b TATA box upstream of the CAT reporter gene (Baichwal, 1990). […]

[3] = system: HL-205 cells; assay: Northern analysis of c-Jun mRNA; type: cell-based, human
Method: (§1) Cell culture. Clone HL-205 was isolated from the human HL-60 myeloid leukemia cell line. The phorbol ester-resistant variant of HL-60 cells, designated HL-525, was isolated by exposing wild-type cells to low concentrations of 12-0-tetradecanoylphorbol-13-acetate (TPA; 0.5 to 3 nM) for 102 passages. These cells were maintained in RPMI 1640 medium containing 20% fetal bovine serum (FBS) with 1 mM L-glutamine, 100 U/ml penicillin and 100 μg/ml streptomycin. Irradiation was performed at room temperature using a Gamma cell 1000 (Atomic Energy at Canada Ltd., Ontario) with a ^137CS source emitting at a fixed dose rate of 14.3 Gray (Gy)/min as determined by dosimetry.
(§2) Isolation and analysis of RNA. Total cellular RNA was purified by the guanidine isothiocyanate-cesium chloride technique. The RNA was analyzed by electrophoresis through 1% agarose-formaldehyde gels, transferred to nitrocellulose filters, and hybridized to the following 32P-labeled DNA probes: 1) the 1.8-kb BamHI/EcoRI insert of a human c-Jun gene purified from a pBluescript SK(+) plasmid; 2) the 1.5-kb EcoRI fragment of the murine Jun-B cDNA from the p465.20 plasmid; 3) Jun-D; 4) the 0.9-kb ScaI/NcoI insert of human c-fos gene purified from the pc-fos-1 plasmid; 5) the 2.0-kb PstI insert of a chicken β-actin gene purified from the pA1 plasmid; and 6) the 1.9-kb BamHI/PstI insert of a human TNF cDNA purified from the pE4 plasmid. Hybridizations were performed at 42° C. for 24 h in 50% (v/v) formamide, 2×SSC, 1×Denhardt's solution, 0.1% SDS, and 200 μg/ml salmon sperm DNA. The filters were washed twice in 2×SSC-0.1% SDS at room temperature and then in 0.1×SSC-0.1% SDS at 60° C. for 1 hour.

[4] = system: HL-525 cells; assay: Northern analysis of c-Jun mRNA; type: cell-based, human
Method: as §1, §2

[5] = system: cell line STSAR-33; assay: Colony-forming radiation-survival assay with TNF-α; type: cell-based, human
[6] = system: cell line STSAR-5; assay: Colony-forming radiation-survival assay with TNF-α; type: cell-based, human; details: STSAR-5, 100-700 cGy
[7] = system: Cell lines STSAR-13 and STSAR-43; assay: Colony-forming radiation-survival assay with TNF-α; type: cell-based, human
[8] = system: cell line SQ-20B; assay: Colony-forming radiation-survival assay with TNF-α; type: cell-based, human
[9] = system: cell line HNSCC-68; assay: Colony-forming radiation-survival assay with TNF-α; type: cell-based, human; details: nonlethal TNF-α 10 units/ml
[10] = system: TNF-α-producing sarcomas (STSAR-5, -13, -33, and -43)
[11] = system: SQ-20B and SCC-61 cells
[12] = system: 12 human epithelial tumor cell lines; details: cited from earlier work
[13] = system: c-Jun gene expression; details: other studies; cited from earlier work
[14] = system: HL-525 cells; assay: Nuclear run-on assay of c-Jun transcription; type: cell-based, human; details: radiation alone 4-fold increase
Method: Nuclear run-on assays. Nuclei were isolated from 10^8 cells and suspended in 100 μl glycerol buffer (50 mM Tris-HCl, pH 8.3, 40% glycerol, 5 mM MgCl2, and 0.1 mM EDTA). An equal volume of reaction buffer (10 mM Tris-HCl, ph 8.0, 5 mM MgCl2, 100 mM KCl, 1 mM ATP, 1 mM CTP, 1 mM GTP, and 5 mM dithiothreitol) was added to the nuclei in suspension and incubated at 26° C. for 30 min with 250 μCi [α-^32P]UTP (3000 Ci/mmol; Dupont, Boston, Mass.). The nuclear RNA was isolated as described and hybridized to the following DNAs: 1) a PstI digest of the pA1 plasmid containing a fragment of the chicken β-action gene; and 2) a BamHI/EcoRI digest of the pBluescript SK(+) plasmid containing a fragment of the human c-Jun gene. The digested DNAs were run in 1% agarose gels and transferred to nitrocellulose filters. Hybridizations were performed with 10^7 cpm of ^32P-labeled RNA/ml in 10 mM Tris-HCl, ph 7.5, 4×SSC, 1 mM EDTA, 0.1% SDS, 2×Denhardt's solution, 40% formamide, and 100 μg/ml yeast tRNA for 72 h at 42° C. The filters were washed in: a) 2×SSC-0.1% SDS at 37° C. for 30 min; b) 200 ng/ml RNase A in 2×SSC at room temperature for 5 min; and c) 0.1×SSC-0.1% SDS at 42° C. for 30 min.

For `C[C@@H]1C[C@@H]([C@H](O)CC2CC(=O)NC(=O)C2)C(=O)[C@@H](C)C1` [cycloheximide], the “Jun mRNA after irradiation in pretreated cells” value ([1]; 293 cells pretreated with CHI) was “persistent elevation of Jun mRNA at 6 hours”, the “Egr-1 mRNA after irradiation in pretreated cells” value ([1]; SQ-20B cells pretreated with CHI) was “persistent elevation of Egr-1 at 3 hours” and the “effect of treatment alone on Egr-1 and Jun transcripts” value ([1]; normalized to 7S, no irradiation) was “low but detectable increase in Egr-1 and Jun transcripts”. For the same compound, the “effect on x-ray-induced increase in Egr-1 and Jun transcripts” value (“effect on x-ray-induced increase” for short) [1] was “superinduction of Jun and Egr-1”.
For `CCCCCCCCCCCCCC(=O)O[C@@H]1[C@@H](C)[C@@]2(O)[C@@H](C=C(CO)C[C@]3(O)C(=O)C(C)=C[C@@H]23)[C@H]2C(C)(C)[C@]12OC(C)=O` [TPA, 12-0-tetradecanoylphorbol-13-acetate], the “increase in CAT activity following TPA stimulation” value ([2]; HeLa and RIT-3 transfectants with pSG-Jun5-253 and G5BCAT) was 3.5 fold, the “effect on x-ray-induced increase” value [1] was “attenuated the increase in Egr-1 and Jun transcripts; also recorded: attenuation of Egr-1 and Jun gene induction by ionizing radiation” and the “effect on c-Jun expression” value ([3]; agent alone) was “increases in c-Jun expression that were detectable at 6 hours and reached maximal levels by 24 hours”. The “effect on expression of Jun-B, Jun-D, c-fos, fos-B” value [4] was “little if any effect on expression of these genes”, the “effect on x-ray-induced c-Jun expression” value [4] was “blocks x-ray-induced increases in c-Jun expression” and the “block of H2O2-induced increases in c-Jun expression” value ([4]; pretreatment) was 80%. The “block of x-ray induced increases in c-Jun expression” value ([4]; pretreatment 36-39 hours) was “over 75%”.
For TNF-α, the “interaction between TNF-α and radiation” value ([5]; STSAR-33, TNF-α 10 units/ml) was “synergistic; also recorded: enhanced killing by radiation”, the “radiosensitivity (D0)” value ([5]; TNF-α 10 units/ml added 20 hr before irradiation, 80.4 cGy without TNF-α) was 60.4 cGy and the “plating efficiency (PE)” value ([5]; TNF-α at 1000 units/ml) was 30%. The “interaction between TNF-α and radiation” value [6] was “additive”, the “interaction between TNF-α and radiation” value [7] was “no interaction was observed” and the “killing with TNF-α alone” value ([8]; SQ-20B, FIG. 1B) was 85%. For the same compound, the “radiosensitivity (D0)” value ([8]; TNF-α 1000 units/ml added 24 hr before x-rays, 239 cGy without TNF-α) was 130.4 cGy, the “effect on cell killing by radiation” value ([8]; TNF-α added after irradiation) was “did not enhance cell killing by radiation” and the “effect on radiation killing” value [9] was “enhanced radiation killing”. The cytotoxicity [10] was “cytotoxic”, the “reduction of plating efficiency (PE)” value ([10]; 1000 units/ml) was 60-90% and the cytotoxicity [11] was “cytotoxic”. The “reduction of plating efficiency (PE)” value ([11]; 1000 units/ml) was 60-80%, the “concentrations with cytotoxic effects” value [12] was 10 to 1000 units/ml and the “killing by TNF and x-rays combined” value ([12]; seven of those ten cell lines) was “synergistic or additive killing”.
In the case of `CC1CNCCN1S(=O)(=O)c1cccc2cnccc12` (centres unmarked) [Plasmid H7, 1-(5-isoquinolinylsulfonyl)-2-methyl piperazine], the “effect on x-ray induced increase in CAT activity” value ([2]; added to RIT-3 cells transfected with pSG-Jun5-235 and G5BCAT) is listed as “abrogated the x-ray induced increase in CAT activity”, the “effect on x-ray-induced increase” value [1] is listed as “attenuated the increase in Egr-1 and Jun transcripts; also recorded: attenuation of Egr-1 and Jun gene induction by ionizing radiation” and the “effect on x-ray-induced c-Jun expression” value [13] is listed as “block x-ray-induced c-Jun gene product expression; also recorded: inhibited”.
For `OO` [Plasmid H2O2, H2O2], the “effect of agent alone on c-Jun expression” value [4] was “transiently induced c-Jun expression; also recorded: increased c-Jun expression”.
With `CC(=O)N[C@@H](CS)C(=O)O` [NAC, N-acetyl-L-cysteine] the “effect on constitutive levels of c-Jun transcripts” value ([3]; 30 mM) was “little if any effect on constitutive levels of c-Jun transcripts”, the “inhibition of x-ray-induced increases in c-Jun expression” value ([3]; 30 mM) was “over 90%” and the “effect on H2O2-induced c-Jun expression” value [4] was “similarly inhibited”. For the same compound, the “effect on ara-C-induced c-Jun gene induction” value [4] was “no detectable effect on induction of the c-Jun gene; also recorded: no detectable effect on ara-C-induced increases in c-Jun transcripts”, the “effect on x-ray-induced c-Jun expression” value [4] was “inhibited” and the “inhibition of radiation-increased rate of c-Jun transcription” value [14] was roughly 90%.
For `CCC/C=C/C=C/C(=O)O[C@H]1/C(=C/C(=O)OC)C[C@H]2C[C@H]([C@@H](C)O)OC(=O)C[C@H](O)C[C@@H]3C[C@H](OC(C)=O)C(C)(C)[C@](O)(C[C@@H]4C/C(=C/C(=O)OC)C[C@H](/C=C/C(C)(C)[C@]1(O)O2)O4)O3` [bryostatin], the “effect on H2O2-induced c-Jun expression” value [4] was “no detectable effect” and the “effect on x-ray-induced c-Jun expression” value [4] was “little if any effect on the induction of c-Jun transcripts by ionizing radiation”.
